Laboratory results published in publication doi:10.1101/2024.12.17.628051v1 (biorxiv, 2024).
Like-named read-outs stand apart in the source and are kept apart here.

Legend:
[1] = molecular target: T1, STRAD/MO25 dimer (His-STRAD C160 and MO25) (Homo sapiens, UniProt Q7RTN6); test: biochemical; conditions: read-out: residual occupancy (Average)
T1 sequence (Q7RTN6 59-431): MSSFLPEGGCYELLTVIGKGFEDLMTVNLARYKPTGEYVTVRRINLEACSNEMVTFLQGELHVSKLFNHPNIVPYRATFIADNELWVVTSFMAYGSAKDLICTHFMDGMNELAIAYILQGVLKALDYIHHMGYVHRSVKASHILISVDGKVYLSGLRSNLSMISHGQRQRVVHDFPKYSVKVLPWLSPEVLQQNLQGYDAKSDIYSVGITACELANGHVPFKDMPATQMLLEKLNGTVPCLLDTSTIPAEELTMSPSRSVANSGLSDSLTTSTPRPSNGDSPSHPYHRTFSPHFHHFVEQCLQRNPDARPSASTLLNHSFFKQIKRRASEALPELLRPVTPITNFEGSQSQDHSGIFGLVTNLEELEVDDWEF
T1 sequence (Q9Y376 1-341 partner): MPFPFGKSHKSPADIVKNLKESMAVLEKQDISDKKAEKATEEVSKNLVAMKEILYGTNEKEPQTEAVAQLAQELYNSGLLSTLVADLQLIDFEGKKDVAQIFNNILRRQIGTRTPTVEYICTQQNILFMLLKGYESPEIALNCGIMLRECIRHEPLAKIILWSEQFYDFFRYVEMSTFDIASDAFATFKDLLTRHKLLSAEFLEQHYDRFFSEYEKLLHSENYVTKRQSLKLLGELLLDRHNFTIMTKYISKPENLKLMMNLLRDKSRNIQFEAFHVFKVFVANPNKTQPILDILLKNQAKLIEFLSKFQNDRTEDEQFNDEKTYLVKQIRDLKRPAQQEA

[2] = molecular target: T1, STRAD/MO25 dimer (His-STRAD C160 and MO25); test: TNP-ATP fluorescence displacement; assay type: binding; conditions: 50 μM compound, 5 μM STRAD-MO25, 5 μM TNP-ATP, pH 7.5, room temperature
[3] = molecular target: T1, STRAD/MO25 dimer (His-STRAD C160 and MO25); test: biochemical; conditions: read-out: residual occupancy (Average); remark: listed apart in the source
[4] = molecular target: T1, STRAD/MO25 dimer (His-STRAD C160 and MO25); test: TNP-ATP fluorescence displacement; assay type: binding
LKB1/STRAD/MO25 trimer = molecular target: T2, LKB1/STRAD/MO25 trimer (Homo sapiens, UniProt Q7RTN6); test: Caliper mobility-shift kinase assay, Fam-LKBtide; assay type: biochemical
T2 sequence (Q7RTN6 1-431): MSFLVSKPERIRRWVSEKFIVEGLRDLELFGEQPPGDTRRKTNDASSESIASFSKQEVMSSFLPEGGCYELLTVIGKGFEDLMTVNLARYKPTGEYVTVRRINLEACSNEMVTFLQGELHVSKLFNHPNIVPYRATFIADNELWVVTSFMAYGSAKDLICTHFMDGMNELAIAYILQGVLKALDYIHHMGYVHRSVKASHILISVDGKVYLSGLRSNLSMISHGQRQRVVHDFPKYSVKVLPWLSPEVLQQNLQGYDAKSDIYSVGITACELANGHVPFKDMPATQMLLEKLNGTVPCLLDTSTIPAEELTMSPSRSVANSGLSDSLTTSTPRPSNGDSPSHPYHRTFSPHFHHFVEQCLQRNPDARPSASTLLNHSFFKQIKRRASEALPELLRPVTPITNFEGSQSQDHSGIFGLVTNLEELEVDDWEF
T2 sequence (Q15831 1-430 partner): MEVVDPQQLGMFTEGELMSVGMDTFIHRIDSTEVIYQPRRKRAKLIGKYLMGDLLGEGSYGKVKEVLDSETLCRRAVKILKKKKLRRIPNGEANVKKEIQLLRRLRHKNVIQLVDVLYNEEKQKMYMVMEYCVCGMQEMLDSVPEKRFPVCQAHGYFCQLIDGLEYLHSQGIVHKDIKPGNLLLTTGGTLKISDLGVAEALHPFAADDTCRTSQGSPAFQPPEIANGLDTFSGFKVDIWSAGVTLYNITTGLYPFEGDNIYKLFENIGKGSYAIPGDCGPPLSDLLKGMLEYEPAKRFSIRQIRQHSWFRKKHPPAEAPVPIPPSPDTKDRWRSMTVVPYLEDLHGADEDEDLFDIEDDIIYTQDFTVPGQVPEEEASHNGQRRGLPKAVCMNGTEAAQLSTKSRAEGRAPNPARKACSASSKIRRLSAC
T2 sequence (Q9Y376 1-341 partner): T1 sequence (Q9Y376 1-341 partner)

| SMILES | Residual Occupancy (Average) at 50 μM [2] [fraction] | remaining activity at 50 µM [3] [%] | other results |
| --- | --- | --- | --- |
| N#CC(C#N)=Cc1ccc(O)c(O)c1 [AG-18] | – | – | remaining activity at 50 µM [1]: 54% |
| COc1cc(Nc2ncc(F)c(Nc3ccc4c(n3)N(COP(=O)(O)O)C(=O)C(C)(C)O4)n2)cc(OC)c1OC [Fostamatinib (R788)] | – | 52 | – |
| N#C/C(=C(/N)Sc1ccc(N)cc1)c1ccccc1C(F)(F)F [SL-327] | – | 54 | – |
| CCOP(=O)(COc1cccc(-c2cn([C@H]3C[C@@H](CN4CCC4)C3)c3ncnc(N)c23)c1)OCC [SMALS-323] | – | – | EC50 (LKB1/STRAD/MO25 trimer): 0.48 µM |
| CCOP(C)(=O)COc1cccc(-c2cn([C@H]3C[C@@H](CN4CCC4)C3)c3ncnc(N)c23)c1 (stereo partly shown) [SMALS-357] | – | – | EC50 (LKB1/STRAD/MO25 trimer): 5.2 µM |

Continued, in another order:

| Residual Occupancy (Average) at 50 μM [2] [fraction] | remaining activity at 50 µM [3] [%] | SMILES | other results |
| --- | --- | --- | --- |
| 0.33 ± 0.02 | – | COc1cc(N2CCC(N)CC2)ccc1Nc1ncc(Cl)c(-c2c[nH]c3ccccc23)n1 [AZD3463] | – |
| 0.46 ± 0.02 | – | CCOc1cc(C(=O)N2CCC(N3CCN(C)CC3)CC2)ccc1Nc1ncc2c(n1)N(C1CCCC1)c1ccccc1C(=O)N2C [ERK5-IN-1] | – |
| – | 58 | Cc1[nH]c2ccccc2c1C1=C(NCCc2ccc(F)cc2)C(=O)N(C)C1=O [IM-12] | – |
| 0.40 ± 0.03 | – | Cc1cc(Nc2ncc(Cl)c(Nc3ccccc3S(=O)(=O)C(C)C)n2)c(OC(C)C)cc1C1CCNCC1 [LDK378] | – |
| – | 19 | Nc1ncnc2c1c(-c1cccc(OCc3ccccc3)c1)cn2[C@H]1C[C@@H](CN2CCC2)C1 [NVP-AEW541] | IC50 [4]: 2.4 µM |
| – | 56 | Cc1c[nH]c2nc(Nc3ccc(N4CCN(C)CC4)c(F)c3)nc(-c3cccc(CC#N)c3)c12 [SGI-7079] | – |
| 0.36 ± 0.02 | – | CN1CCN(CCOc2cc(OC3CCOCC3)c3c(Nc4c(Cl)ccc5c4OCO5)ncnc3c2)CC1 [Saracatinib] | – |
